How the values were obtained:
Assay type in all cases: functional
Mus musculus [1] = test: Estrogenic activity in albino ICI mouse assessed as body weight at 0.1 ug, sc qd for 3 days (reference value: 12.1 +/- 0.7 gram)
Mus musculus [2] = test: Estrogenic activity in albino ICI mouse assessed as uterus weight at 0.1 ug, sc qd for 3 days (reference value: 28 +/- 2 mg)
Mus musculus [3] = test: Estrogenic activity in albino ICI mouse assessed as body […] ratio at 0.1 ug, sc qd for 3 days (reference value: 232.2 +/- 10.4)
Mus musculus [4] = test: Estrogenic activity in albino ICI mouse assessed as body weight at 100 ug, sc qd for 3 days (reference value: 12.1 +/- 0.7 gram)
Mus musculus [5] = test: Estrogenic activity in albino ICI mouse assessed as uterus weight at 100 ug, sc qd for 3 days (reference value: 28 +/- 2 mg)
Mus musculus [6] = test: Estrogenic activity in albino ICI mouse assessed as body […] ratio at 100 ug, sc qd for 3 days (reference value: 232.2 +/- 10.4)
Mus musculus [7] = test: Potentiation of stilbestrol-induced estrogenic activity in albino ICI mouse assessed as body weight at 0.1 ug, sc qd for 3 days (reference value: 12.1 +/- 0.7 gram)
Mus musculus [8] = test: Potentiation of stilbestrol-induced estrogenic activity in albino ICI mouse assessed as body weight at 100 ug, sc qd for 3 days (reference value: 12.1 +/- 0.7 gram)
Mus musculus [9] = test: Potentiation of stilbestrol-induced estrogenic activity in albino ICI mouse assessed as uterus weight at 0.1 ug, sc qd for 3 days (reference value: 28 +/- 2 mg)
Mus musculus [10] = test: Potentiation of stilbestrol-induced estrogenic activity in albino ICI mouse assessed as uterus weight at 100 ug, sc qd for 3 days (reference value: 28 +/- 2 mg)
Mus musculus [11] = test: Potentiation of stilbestrol-induced estrogenic activity in albino ICI mouse assessed as body […] ratio at 0.1 ug, sc qd for 3 days (reference value: 232.2 +/- 10.4)
Mus musculus [12] = test: Potentiation of stilbestrol-induced estrogenic activity in albino ICI mouse assessed as body […] ratio at 100 ug, sc qd for 3 days (reference value: 232.2 +/- 10.4)

| SMILES | Activity (Mus musculus [1]) | Activity (Mus musculus [2]) | Ratio (Mus musculus [3]) | Activity (Mus musculus [4]) | Activity (Mus musculus [5]) | Ratio (Mus musculus [6]) | Activity (Mus musculus [7]) | Activity (Mus musculus [8]) | Activity (Mus musculus [9]) | Activity (Mus musculus [10]) | Ratio (Mus musculus [11]) | Ratio (Mus musculus [12]) |
| --- | --- | --- | --- | --- | --- | --- | --- | --- | --- | --- | --- | --- |
| CC/C(=C(/CC)c1ccc(O)cc1)c1ccc(O)cc1 [DIETHYLSTILBESTROL] | 16.8 g | 148 mg | 882 |  |  |  |  |  |  |  |  |  |
| O=C1CCC2(CC1)Cc1ccccc1C2=O | 14.1 g | 35.5 mg | 252 | 13.3 g | 28.3 mg | 212.7 | 15.2 g | 14.1 g | 145 mg | 192.3 mg | 957.1 | 1366.9 |
